The target in data set [1] is HIV protease Mutant 8 (Human immunodeficiency virus type 1, UniProt P04585). In words: HIV protease inhibitory activity, Mutant 8. It is filed as biochemical. As to conditions: Mutant 8 protease.
Data set [2] has as its system HIV-1 Mutant 8. In words: Antiviral activity, in vitro drug sensitivity of HIV-1 isolates, Mutant 8. It counts as cell-based. The note with it: Human immunodeficiency virus 1, read-out: Antiviral activity IC50 Mutant 8. As for the experimental part:
(§1) In Vitro Drug Sensitivity of HIV-1 Laboratory Isolates to PIs
(§2) The sensitivities of HIV-1 isolates against compounds of the invention were determined as previously described with minor modifications (Shiraska et al., Proc. Natl. Acad. Sci. USA, 92, 2398-2402 (1995)).

The test system of data set [3] is HIV-1 WT. Description: Antiviral activity, in vitro drug sensitivity of HIV-1 isolates, WT. It counts as cell-based. As to conditions: Human immunodeficiency virus 1. As to the method: as §1, §2
The target in data set [4] is HIV protease Mutant 9 (Human immunodeficiency virus type 1, UniProt P04585). Description: HIV protease inhibitory activity, Mutant 9. It is filed as biochemical. As to conditions: Mutant 9 protease.
The target in data set [5] is T1, HIV protease (wt) (Human immunodeficiency virus type 1 group M subtype B, UniProt P04585).
T1 construct: over 45 of the 99 amino acids of the HIV protease monomer
In words: HIV protease inhibitory activity, wild type. It is filed as biochemical.

Data set [6] has as its system HIV-1 Mutant 9. In words: Antiviral activity, in vitro drug sensitivity of HIV-1 isolates, Mutant 9. It is filed as cell-based. As to conditions: Human immunodeficiency virus 1, read-out: Antiviral activity IC50 Mutant 9. As to the method:
as §1, §2

A short description of data set [7]: In vivo bioavailability, rat. The note with it: 20 mg/kg p.o.
The conditions of data set [8]: rat, oral administration; Miller et al., Bioorg Med Chem Lett. 1788-94 (2006); cited from earlier work.

Broadly, the Ki is a measure of affinity in units of concentration, obtained from inhibition or displacement. Low readings indicate tighter binding, high ones weaker binding. The IC50 is the midpoint of a concentration-inhibition curve. As a reminder, the Cmax is the highest concentration seen after dosing. In general, Tmax refers to the time from dosing to the highest level. For orientation: bioavailability means dose-corrected exposure relative to a reference, in per cent. A lower bioavailability goes with little systemic uptake. Consider `Cc1nc(COc2ccc(C[C@H](NC(=O)O[C@H]3CO[C@H]4OCC[C@H]43)[C@H](O)CN(CC(C)C)S(=O)(=O)c3ccc4occc4c3)cc2)cs1` [Compound D], for which the Ki in data set [1] was below 0.05 nM; in data set [4], 0.055 nM; in data set [5] it was below 0.05 nM. Also, the IC50 in data set [2] was determined as 4.2 nM; in data set [3], 1.4 nM; in data set [6] it was 32 nM. For the same molecule, the “AUC (0-12)” value in data set [7] is 11 ugxh/mL. The molecule further registered a Cmax in data set [7] (in vivo, po) of 3.51 µM. Further, in data set [7] (in vivo, po), the Tmax was found to be 39.6 min. Further, the bioavailability in data set [7] (in vivo, po) is 92%.

As to `Cc1nc(COc2ccc(C[C@H](NC(=O)O[C@H]3CO[C@H]4OCC[C@H]43)[C@H](O)CN(CC(C)C)S(=O)(=O)c3ccc4c(c3)OCO4)cc2)cs1` [GW0385, reference compound], the Ki in data set [1] is below 0.05 nM; in data set [4], 0.13 nM; in data set [5] it was 0.1 nM. Moreover, the IC50 came to 3.2 nM in data set [2], 0.8 nM in data set [3] and 42 nM in data set [6]. Also, in data set [8], the “% F” value is recorded as 10%.

The values above are taken from patent publication US8389571B2, “Benzofuran derived HIV protease inhibitors” (Sequoia Pharmaceuticals, Inc., priority 2007, dated 2013).
